Data: US4880777A, “Synthetic peptides having growth hormone releasing activity” (Eastman Kodak Company, priority 1987, dated 1989)
“And” between values parts separate entries of the source, which are not always exact repeats. Equal values may be shown once. Where a SMILES comes first, the peptide text is derived from it. Bridges are numbered along the chain shown (N, C = ends). [ ]: non-standard residue; d: D form. Nle = CCCC[C@H](N)C(=O)O

Assays:
[1] = tested on: growth hormone (GH); assay: In vivo synergistic effects on GH release in rats of combinations with Compound B (Group 3) and Compound C (Group 2); details: for synergism with Group 3 Compound B (in words): combination with Compound B (Tyr-DArg-Phe-Gly-NH2)
Description: (§1) Immature female Sprague-Dawley rats were obtained from the Charles River Laboratories (Wilmington, Mass.). After arrival they were housed at 25° C. with 14:10 hour light:dark cycle. Water and Purina rat choow were availablle ad libitum. Pups were kept with their mothers until 21 days of age.
(§2) Normal saline with 0.1% gelatin was the vehicle for s.c. and i.v. injections of Compounds 1 and 2 . The unanesthetized rats, weighing 55-65 grams, were injected i.v. with 0.2 ml solution via the tail vein. All animals were sacrificed by quillotine 10 minutes after the final test injection unless specified otherwise. Trunk blood for growth hormone (GH) determinations was collected following decapitation. The blood was allowed to clot, centrifuged and the serum separated from the clot. Serum was kept frozen until the day of sampling for radioimmunoassay (RIA) of growth hormone levels according to the following procedure, as developed by the National Institute of Arthritis, Diabetes and Digestive and Kidney Diseases (NIADDK).
(§3) The mixed reagents are then typically incubated at room temperature (about 25° C.) for about 24 hours prior to addition of a second antibody (e.g., goat or rabbit anti-monkey gamma globulin serum) which binds to and cause precipitation of the complexed growth hormone antiserum. Precipitated contents of the RIA tubes are then analyzed for the number of counts in a specified period of time in a gamma scintillation counter. A standard curve is prepared by plotting number of radioactive counts as a function of growth hormone (GH) level. GH levels of unknowns are then determined by reference to the standard curve.
(§4) Serum GH was measured by RIA with reagents provided by the National Hormone and Pituitary Program. Serum levels are recorded in ng/ml in terms of the rat GH standard with 0.61 IU/mg. Data is recorded as the mean ± standard error of the mean (SEM). Statistical analysis was performed with student's t-test.
Compound 1 and Compound 2 of Examples 1 and 2, respectively, were each combined with the Group 2 and/or Group 3 polypeptides identified in Table 4 below and in the proprotions shown. The combinations were then tested for GH release in rats by the same procedure set forth in Example 3.

[2] = tested on: growth hormone (GH); assay: In vivo GH release in rats (serum GH by RIA, 10 minutes after i.v. injection); set-up: species or system Sprague-Dawley rats; details: for GH Release: immature female rats, serum GH 10 minutes after injection, mean ± SEM; for potency compared with Compound A (in words) / release of growth hormone when administered to rats via i.v. injection (in words): rats, i.v. injection
Description: as §1, §2
Reagents are generally added to the RIA analysis tubes at a single sitting, at refrigerator temperature (about 4° C.) in the following sequence:
(b) "cold" (i.e., non-radioactive) standard or unknown serum sample to be analyzed,
(c) radio-iodinated growth hormone antigen, and
(d) growth hormone antiserum.
Reagent addition is generally carried out so that there is achieved a final RIA tube dilution in the range of about 1:10,000 up to 1:500,000 (antiserum to total liquid volume; vol:vol).
as §3, §4

[3] = dose 10 of Column A compound combined with 30 μg Compound B
[4] = dose 30 of Column A compound combined with 30 μg Compound B

Structure (SMILES): CCCC[C@H](NC(=O)[C@@H](NC(=O)[C@H](CC(=O)O)NC(=O)[C@H](CCC(N)=O)NC(=O)[C@H](CC(C)C)NC(=O)[C@H](CC(C)C)NC(=O)[C@H](CCCCN)NC(=O)[C@H](CCCNC(=N)N)NC(=O)[C@H](C)NC(=O)[C@H](CO)NC(=O)[C@H](CC(C)C)NC(=O)[C@H](CCC(N)=O)NC(=O)[C@H](CS)NC(=O)[C@H](CC(C)C)NC(=O)[C@@H](NC(=O)[C@H](CCCCN)NC(=O)[C@H](CCCNC(=N)N)NC(=O)[C@H](Cc1ccc(O)cc1)NC(=O)[C@H](CS)NC(=O)[C@H](CC(N)=O)NC(=O)[C@@H](NC(=O)[C@H](Cc1ccccc1)NC(=O)[C@@H](NC(=O)[C@H](C)NC(=O)[C@H](CC(=O)O)NC(=O)[C@H](C)NC(=O)[C@@H](N)Cc1ccc(O)cc1)[C@@H](C)CC)[C@@H](C)O)C(C)C)[C@@H](C)CC)C(=O)N[C@@H](CO)C(=O)N[C@@H](CCCNC(=N)N)C(N)=O [Compound 1] (H-YADAIFTNCYRKVLCQLSARKLLQDI[Nle]SR-NH2)
- synergism with Group 3 Compound B (in words) [1]: act synergistically
- GH Release by Compound in Column A ([1]; dose 10, compound alone): 145 ± 41 ng/mL and 77 ± 10 ng/mL
- GH Release of Compound in Column A & 30 μg Compound B [1, 3]: 3314 ± 275 ng/mL and 2078 ± 395 ng/mL
- GH Release of Compound in Column A & 30 μg Compound B & 10 μg Compound C ([1]; dose 10 of Column A compound combined with 30 μg Compound B and 10 μg Compound C): 4947 ± 366 ng/mL
- GH Release by Compound in Column A ([1]; dose 30, compound alone): 151 ± 33 ng/mL
- GH Release of Compound in Column A & 30 μg Compound B [1, 4]: 2875 ± 472 ng/mL
- GH Release by Compound in Column A ([1]; dose 100, compound alone): 374 ± 94 ng/mL
- GH Release of Compound in Column A & 30 μg Compound B ([1]; dose 100 of Column A compound combined with 30 μg Compound B): 2328 ± 297 ng/mL
- GH Release ([2]; 10 μg i.v.): 145 ± 41 ng/mL
- GH Release ([2]; 30 μg i.v.): 151 ± 33 ng/mL
- GH Release ([2]; 100 μg i.v.): 374 ± 94 ng/mL
- potency compared with Compound A (in words) [2]: potencies similar to Compound A
- release of growth hormone when administered to rats via i.v. injection (in words) [2]: highly active

Structure (SMILES): CCCC[C@H](NC(=O)[C@@H](NC(=O)[C@H](CC(=O)O)NC(=O)[C@H](CCC(N)=O)NC(=O)[C@H](CC(C)C)NC(=O)[C@H](CC(C)C)NC(=O)[C@H](CCCCN)NC(=O)[C@H](CCCNC(=N)N)NC(=O)[C@H](C)NC(=O)[C@H](CO)NC(=O)[C@H](CC(C)C)NC(=O)[C@H](CCC(N)=O)NC(=O)[C@@H]1CSSC[C@H](NC(=O)[C@H](CC(N)=O)NC(=O)[C@@H](NC(=O)[C@H](Cc2ccccc2)NC(=O)[C@@H](NC(=O)[C@H](C)NC(=O)[C@H](CC(=O)O)NC(=O)[C@H](C)NC(=O)[C@@H](N)Cc2ccc(O)cc2)[C@@H](C)CC)[C@@H](C)O)C(=O)N[C@@H](Cc2ccc(O)cc2)C(=O)N[C@@H](CCCNC(=N)N)C(=O)N[C@@H](CCCCN)C(=O)N[C@@H](C(C)C)C(=O)N[C@@H](CC(C)C)C(=O)N1)[C@@H](C)CC)C(=O)N[C@@H](CO)C(=O)N[C@@H](CCCNC(=N)N)C(N)=O [Compound 2] (H-YADAIFTNCYRKVLCQLSARKLLQDI[Nle]SR-NH2; disulfide 9-15)
- synergism with Group 3 Compound B (in words) [1]: act synergistically
- GH Release by Compound in Column A ([1]; dose 3, compound alone): 62 ± 8 ng/mL
- GH Release of Compound in Column A & 30 μg Compound B ([1]; dose 3 of Column A compound combined with 30 μg Compound B): 1689 ± 264 ng/mL
- GH Release by Compound in Column A ([1]; dose 10, compound alone): 99 ± 11 ng/mL and 105 ± 29 ng/mL
- GH Release of Compound in Column A & 30 μg Compound B [1, 3]: 3733 ± 515 ng/mL and 2241 ± 323 ng/mL
- GH Release by Compound in Column A ([1]; dose 30, compound alone): 132 ± 24 ng/mL
- GH Release of Compound in Column A & 30 μg Compound B [1, 4]: 2652 ± 560 ng/mL
- GH Release ([2]; 3 μg i.v.): 62 ± 8 ng/mL
- GH Release ([2]; 10 μg i.v.): 99 ± 11 ng/mL
- GH Release ([2]; 30 μg i.v.): 132 ± 24 ng/mL
- potency compared with Compound A (in words) [2]: potencies similar to Compound A
- release of growth hormone when administered to rats via i.v. injection (in words) [2]: highly active
